Results: publication PMC11597817, “Modulation of Multispecific Transporters by Uncaria tomentosa Extract and Its Major Phytoconstituents” (Pharmaceutics, 2024)
pIC50: −log10 of the molar value. Like-named read-outs stand apart in the source and are kept apart here.

Biological target: T1, BCRP (Homo sapiens, UniProt Q9UNQ0)
T1 construct: The cDNA encoding respective transporters were synthetized and cloned by GenScript; host or cells: HEK293 (lentiviral transduction), membrane vesicles
T1 sequence (Q9UNQ0 1-655): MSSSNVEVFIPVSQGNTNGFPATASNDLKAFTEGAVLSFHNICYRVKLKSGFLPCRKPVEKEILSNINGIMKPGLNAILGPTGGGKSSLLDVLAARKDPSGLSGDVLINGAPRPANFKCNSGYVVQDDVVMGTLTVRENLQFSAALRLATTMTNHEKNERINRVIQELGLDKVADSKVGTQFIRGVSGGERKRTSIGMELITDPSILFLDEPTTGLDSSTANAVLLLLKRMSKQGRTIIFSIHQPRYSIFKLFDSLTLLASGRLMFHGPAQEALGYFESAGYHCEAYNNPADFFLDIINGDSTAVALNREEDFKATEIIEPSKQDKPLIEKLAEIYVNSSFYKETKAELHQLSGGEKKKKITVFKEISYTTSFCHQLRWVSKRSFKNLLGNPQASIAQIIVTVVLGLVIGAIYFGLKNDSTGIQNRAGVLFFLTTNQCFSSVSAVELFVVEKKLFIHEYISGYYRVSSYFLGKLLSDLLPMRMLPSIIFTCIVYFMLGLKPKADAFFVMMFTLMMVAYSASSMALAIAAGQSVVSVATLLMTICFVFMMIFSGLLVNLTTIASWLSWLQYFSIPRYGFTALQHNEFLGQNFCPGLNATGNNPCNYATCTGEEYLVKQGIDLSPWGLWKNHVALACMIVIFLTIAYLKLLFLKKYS
Experiment: Vesicular transport inhibition assay, BCRP membrane vesicles
Type: biochemical
Settings: for Igut/IC50 ratio: BCRP, Igut = dose/250 mL, 500 mg dose of UT extract, ICH M12 cut-off 10; for pIC50: oxindole alkaloids, substrate E3S, read-out: IC50 (95% CI of IC50)
Text: The human embryonic kidney 293 (HEK293) cell line was purchased from Invitrogen/ThermoFisher (Waltham, MA, USA). Madin–Darby canine kidney II (MDCKII) wild type cells were obtained from the European Collection of Authenticated Cell Cultures (ECACC catalog no. 00062107). HEK293 cells overexpressing the human uptake OATP1B1 (NCBI Reference Sequence: NM_006446.4), OATP1B3 (NM_019844), OATP2B1 (NM_007256), OATP1A2 (NM_134431), OAT1-3 (BC033682.1; NM_006672.3; BC022387), OCT1-3 (BC126364.1; NM_003058; NM_021977), OCTN1 (NM_003059.3), NTCP (NM_003049.3), MATE1 (NM_018242.3), MATE2K (NM_001099646.2), ENT4 (NM_001040661.1), SGLT2 (AJ133127.1), ASCT1/2 (NM_003038.5; NM_005628.3), LAT1/2 (NM_003486.6; NM_012244.4), and THTR1/2 (NM_006996; NM_025243) and mock and human efflux BCRP (NM_004827.2), BSEP (NM_003742.2), MDR1 (NM_000927.4), and MRP1-5 (NM_004996; NM_000392.4; BC137347.1; NM_005845.4; NM_005688.2) transporters as well as MDCKII overexpressing human ENT1/2 (NM_001078177; NM_001532.2) and URAT1 (BC053348) transporters were created by lentiviral transduction. The cDNA encoding respective transporters were synthetized and cloned by GenScript (Piscataway, NJ, USA). The production of lentivirus supernatants, the transduction of the cells, cloning, functional characterization, and validation were performed by Charles River Laboratories Hungary Kft. (Budapest, Hungary).
Membrane vesicles were prepared from ABC transporter-overexpressing HEK293 cells by Charles River Laboratories Hungary Kft. as described previously in detail. Vesicles were frozen in liquid nitrogen and stored at −80 °C.
Vesicular transport inhibition assays were performed using a rapid filtration technique. In brief, the appropriate amount of the protein of each membrane vesicle was mixed with either the extract or isopteropodine, mitraphylline, or uncarine D at one concentration or with their half dilution series from 150 µg/mL or from 100 µM, the suitable transporter substrate, and the assay buffer on ice. Reaction mixtures were preincubated for 15 min at 37 °C with shaking at 250 rpm. Following preincubation, 4 mM Mg-ATP or AMP was added and incubated according to Table S3. Vesicular transport was terminated by adding an ice-cold washing buffer, and the reaction mix was transferred to a MSFBN6B10 filter plate (Merck) for filtration. The filter plates were then dried at 40 °C for 4 h, and radiolabeled substrates retained in the vesicles were detected by liquid scintillation counting as described above. For fluorescent substrates, accumulation was measured with a Clariostar^plus microplate reader (BMG Labtech GmbH, Ortenberg, Germany).
The transporter-mediated uptake and ATP-dependent transport were determined by subtracting the activity of the control cell/transporter abundant-membrane in the presence of AMP from the activity of the transporter-overexpressing cell/transporter-abundant membrane in the presence of ATP. The relative transporter-specific accumulation was expressed as the percent of DMSO activity. The results were presented as the mean ± SEM from 3 parallels. More than a 20% reduction in transport activity was considered as inhibition. For the IC50 determination, dose–response curves were fitted using a 4-parameter nonlinear model in GraphPad Prism version 9.0. Confidence intervals (CIs) of 95% were also determined.
Table S3 – Vesicular transport inhibition assay details.
These parameters were set during previous validations. TC: taurocholic acid, E3S: estrone 3 -sulfate, […]

Structure (SMILES)	Igut/IC50 ratio	Igut/IC50 ratio (listed as Isopteropodine)	pIC50 (listed as Isopteropodine)	pIC50
COC(=O)C1=CO[C@@H](C)[C@H]2CN3CC[C@]4(C(=O)Nc5ccccc54)[C@@H]3C[C@H]12 [mitraphylline]	< 10			
COC(=O)C1=CO[C@@H](C)[C@@H]2CN3CC[C@@]4(C(=O)Nc5ccccc54)[C@@H]3C[C@H]12 [isopteropodine]	< 10	0.42	4.26	4.26
